Experimental data reported in PMC10892375, “Determination of the Cannabinoid CB1 Receptor’s Positive Allosteric Modulator Binding Site through Mutagenesis Studies” (Pharmaceuticals, 2024).

Molecular target: T1, hCB1 mutant F408A^8.54 (Homo sapiens, UniProt P21554, F408A)
T1 construct: expressed in transfected cells; host or cells: HEK293
Assay: pIRES G protein dissociation BRET assay, F408A mutant
Assay type: cell-based
Conditions: for G protein dissociation, AUC of 10 μM compound (maximal response): 10 μM ligand alone
Protocol: Mutagenesis studies using the pIRES G protein dissociation assay were performed using human embryonic kidney 293 (HEK293) wild-type cells transiently transfected with pplss-3HA-hCB1 [31] or modified receptor. All cells were cultured in Dulbecco’s Modified Eagle’s Medium (DMEM) supplemented with 10% fetal bovine serum (FBS), grown in […] vented-cap flasks, and maintained in a 37° C incubator at 5% CO2.
Mutants of pplss-3HA-hCB1 (WT, pEF-V4-HisA (pEF4a) construct) were generated using a modified QuikChange® (Stratagene, San Diego, CA, USA) site-directed mutagenesis approach using KAPA HiFi Hotstart Polymerase (KAPA Biosystems, Roche, Basel, Switzerland). Briefly, single-stranded primers used to modify one or two base pairs within the target amino acid using PCR were purchased from Integrated DNA Technologies (IDT, Coralville, IA, USA). All pplss-hCB1 mutants were generated using the pplss-3HA-hCB1 pEF4a as parental DNA. PCR products were generated using recommended cycling conditions and treated with Dpn1 (New England Biolabs, Ipswich, MA, USA) overnight at 37° C to digest methylated parental DNA. PCR products were electrophoresed and run on an agarose gel (1% (w.v^−1) agarose, HydraGene, Piscataway, NJ, USA) containing 0.25 μg/mL ethidium bromide (Sigma-Aldrich, St. Louis, MO, USA). Gels were run in 40 mM TRIS-acetate buffer containing […] (pH 8.3) at 100 V for 30 min, maximum current and included a 1kb+ DNA ladder (Invitrogen, Thermo Fisher Scientific, Carlsbad, CA, USA) for reference. Gels were imaged using an UVTech Alliance Q9 Mini transilluminator (UVTech Alliance, Cambridge, UK). Digested products were then used to transform NEB 5α competent E. coli cells in accordance with manufacturer’s instructions. Briefly, transformed PCR products were grown overnight on 8.5 mL Luria Broth agar plates (containing 100 μg/mL ampicillin) at 37° C. Single bacterial colonies were picked and inoculated in Luria Broth (containing 100 μg/mL ampicillin) and grown overnight in a shaking incubator at 37° C. Plasmids were then harvested and purified using a Qiagen miniprep kit (Qiagen, Hilden, Germany) and validated using sequencing (Genetics Analysis Service, University of Otago, Dunedin, New Zealand).
Dissociation of the G protein heterotrimer, specifically Gαi1, Gβ1, and Gγ2, was investigated using a bioluminescence resonance energy transfer (BRET) assay with the pIRES biosensor first described by and adapted by.
Briefly, 3 × 10^6 WT HEK293 cells were seeded into 10 cm culture dishes (Corning, Corning, NY, USA; one dish for the control receptor and one for each modified receptor) and incubated at 37 °C for 24 h to gain 50–60% confluency. Culture medium was then replaced and transfection mixtures containing 3 μg pIRES vector and 1 μg receptor (either pplss-hCB1 or modified receptor) were prepared (4 μg total DNA). Plasmids were initially diluted in sterile Milli-Q water before being diluted in OptiMEM reduced serum medium (Thermo Fisher Scientific, Waltham, MA, USA) and combined with […] polyethylenimine (PEI)-max (1:9 DNA:PEI-max ratio) and incubated at room temperature for 20 min. Transfection mixtures were then added to cells via dropwise addition, and cells were incubated at 37 °C for 24 h. Transfected cells were lifted and plated at 50,000 cells/well into poly-d-lysine (PDL; Sigma-Aldrich) coated white 96-well CulturPlates (PerkinElmer, Waltham, MA, USA) and incubated for a further 24 h at 37 °C.
To assay, the culture medium was aspirated and cells were washed with phosphate buffered saline (PBS) and replaced with BRET assay medium (phenol red free DMEM containing 25 mM HEPES and supplemented with 1 mg/mL bovine serum albumin; BSA, MP Biomedicals, Auckland, New Zealand) for 30 min prior to drug addition (serum starve). Drugs were prepared at 10 × concentration in BRET assay medium, combined in a polypropylene V-bottom plate, and incubated at 37° C prior to drug stimulation.

T1 sequence (P21554 whole entry F408A): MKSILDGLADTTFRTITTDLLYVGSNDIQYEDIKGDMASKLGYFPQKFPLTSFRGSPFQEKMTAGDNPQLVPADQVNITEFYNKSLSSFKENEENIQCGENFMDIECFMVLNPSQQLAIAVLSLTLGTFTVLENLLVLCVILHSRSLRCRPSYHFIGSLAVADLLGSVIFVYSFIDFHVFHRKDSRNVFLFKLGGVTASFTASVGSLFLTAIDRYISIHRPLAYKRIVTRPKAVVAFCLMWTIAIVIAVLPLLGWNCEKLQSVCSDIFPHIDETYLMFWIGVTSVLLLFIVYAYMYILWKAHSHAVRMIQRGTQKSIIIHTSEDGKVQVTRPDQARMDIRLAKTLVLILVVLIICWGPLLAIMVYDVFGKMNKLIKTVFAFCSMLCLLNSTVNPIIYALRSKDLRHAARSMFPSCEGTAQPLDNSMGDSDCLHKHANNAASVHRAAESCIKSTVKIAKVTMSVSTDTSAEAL

SMILES	G protein dissociation, AUC, 10 μM CP55940 + 10 μM ZCZ011 (10 μM CP55940 in the presence of 10 μM ZCZ011)	G protein dissociation, AUC of 10 μM compound (maximal response)	EMAX, CP55940 + 10 μM GAT228 (in the presence of 10 μM GAT228)	EMAX, CP55940 + 10 μM GAT229 (in the presence of 10 μM GAT229)	EMAX, CP55940 Alone (top of the curve (maximal response))
CCCCCCC(C)(C)c1ccc([C@@H]2C[C@H](O)CC[C@H]2CCCO)c(O)c1 [CP55940]	−159.7 ± 13.4	−131.7 ± 10.4	−148.4 ± 11.4 ∆BRET.sec	−154.0 ± 14.5 ∆BRET.sec	−128.6 ± 12.1 ∆BRET.sec
O=[N+]([O-])C[C@H](c1ccccc1)c1c(-c2ccccc2)[nH]c2ccccc12 [GAT228]	–	−90.3 ± 8.3	–	–	–
O=[N+]([O-])C[C@@H](c1ccccc1)c1c(-c2ccccc2)[nH]c2ccccc12 [GAT229]	–	−110.0 ± 8.6	–	–	–
Cc1ccc2c(C(C[N+](=O)[O-])c3cccs3)c(-c3ccccc3)[nH]c2c1 (centres unmarked) [ZCZ011, 6-Methyl-3-(2-nitro-1-(thiophen-2-yl)ethyl)-2-phenyl-1 H-indole]	–	−116.9 ± 10.1	–	–	–
